pIC50: −log10 of the molar value. Values joined by “and” are separate entries in the source; they are usually repeats but may differ in a detail not shown here. Equal entries are not always repeated. Where two headings read alike, the source gives them in different places.
Columns and labels:
[1] = test system: herpes simplex type 1 virus (HFEM strain); experiment: Plaque reduction test in Vero cells infected with herpes simplex type 1 virus; assay type: cell-based; conditions: for pIC50: molar
Experimental: (§1) Vero (African Green Monkey Kidney) cells were grown to confluence in 6 well multidishes, each well being 3.5 cm in diameter. The cells were incubated with herpes simplex type 1 virus (HFEM strain) and overlaid with 0.5 mL of 0.9% agarose (w/v) in maintenance medium containing the test compound at a range of concentrations from 100 pg/mL in half-log dilution steps. The virus infected cultures were then incubated at 37°C for 6 days before fixing in 4% formaldehyde solution and staining with carbolfuchsin. The dishes were then examined to find the concentration of test compound causing a 50% reduction in the number of virus plaques formed (PDD50 value) and the minimum concentration of test compound which killed the cell monolayer, leaving a clear zone devoid of cells and virus plaques (MTD).

[2] = Minimum concentration killing the cell monolayer (MTD), read in the plaque reduction test; assay type: cell-based, African Green Monkey; conditions: monkey, vero cells; minimum concentration which killed the cell monolayer; virus infected Vero cultures, 6 days at 37°C
Experimental: as §1

[3] = Human alphaherpesvirus 1, 144 h, concentration causing a 50% reduction in the number of virus plaques, Vero cells, HFEM strain, 6 days at 37°C, read-out: PDD50 (the source's name)
[4] = Human alphaherpesvirus 1, Vero, 144 h, read-out: PDD50

Compound	pIC50 [1, 3]	IC50 [1, 3]	MCC at 144 h [2]	IC50 [1, 4]
O=C(OC[C@H]1O[C@@H](n2cc(/C=C/Br)c(=O)[nH]c2=O)C[C@@H]1OC(=O)c1ccccc1)c1ccccc1 [Example 2, E-5-(2-bromovinyl)-3',5'-di-O-benzoyl-2'-deoxyuridine]	4.00	54 µg/mL	> 100 µg/mL	
O=C(OC[C@H]1O[C@@H](n2cc(/C=C/Br)c(=O)[nH]c2=O)C[C@@H]1O)c1ccccc1 [Example 3, 5'-O-benzoyl-E-5-(2-bromovinyl)-2'-deoxyuridine]	5.43	1.7 µg/mL	> 100 µg/mL	
O=C(O[C@H]1C[C@H](n2cc(/C=C/Br)c(=O)n(C(=O)c3ccccc3)c2=O)O[C@@H]1CO)c1ccccc1 [Example 10, 3-N-Benzoyl-3'-O-benzoyl-E-5-(2-bromovinyl)-2'-deoxyuridine]	5.42	2.1 µg/mL	100 µg/mL	
O=C(O[C@H]1C[C@H](n2cc(/C=C/Br)c(=O)[nH]c2=O)O[C@@H]1CO)c1ccccc1 [Example 11, 3'-O-Benzoyl-E-5-(2-bromovinyl)-2'-deoxyuridine]	5.43	1.6 µg/mL	> 100 µg/mL	
O=C(c1ccccc1)n1c(=O)c(/C=C/Br)cn([C@H]2C[C@H](O)[C@@H](CO)O2)c1=O [Example 12, 3-N-Benzoyl-E-5-(2-bromovinyl)-2'-deoxyuridine]	6.28	0.23 µg/mL	100 µg/mL	
O=C(OC[C@H]1O[C@@H](n2cc(/C=C/Br)c(=O)[nH]c2=O)C[C@@H]1OC(=O)c1ccc(Cl)cc1)c1ccc(Cl)cc1 [Example 15, E-5-(2-Bromovinyl)-3',5'-di-O-p-chlorobenzoyl-2'-deoxyuridine]	3.92	74 µg/mL	> 100 µg/mL	
O=C(Cc1ccccc1)OC[C@H]1O[C@@H](n2cc(/C=C/Br)c(=O)[nH]c2=O)C[C@@H]1OC(=O)Cc1ccccc1 [Example 17, E-5-(2-Bromovinyl)-3',5'-di-0-phenylacetyl-2'-deoxyuridine]			> 100 µg/mL	3.9 µg/mL and 6.9 µM
O=C(OC[C@H]1O[C@@H](n2cc(/C=C/Br)c(=O)[nH]c2=O)C[C@@H]1O)c1ccc(Cl)cc1 [Example 18, E-5-(2-Bromovinyl)-5'-0-p-chlorobenzoyl-2'-deoxyuridine]	5.75	0.84 µg/mL	> 100 µg/mL	
COc1ccc(C(=O)OC[C@H]2O[C@@H](n3cc(/C=C/Br)c(=O)[nH]c3=O)C[C@@H]2O)cc1 [Example 19, E-5-(2-Bromovinyl)-5'-p-methoxybenzoyl-2'-deoxyuridine]	4.87	6.3 µg/mL	100 µg/mL	
O=C(c1ccc(Cl)cc1)n1c(=O)c(/C=C/Br)cn([C@H]2C[C@H](O)[C@@H](CO)O2)c1=O [Example 20, E-5-(2-Bromovinyl)-3-N-p-chlorobenzoyl-2'-deoxyuridine]	6.60	0.12 µg/mL	> 100 µg/mL	
COc1ccc(C(=O)n2c(=O)c(/C=C/Br)cn([C@H]3C[C@H](O)[C@@H](CO)O3)c2=O)cc1 [Example 21, E-5-(2-Bromovinyl)-3-N-p-methoxybenzoyl-2'-deoxyuridine]	6.27	0.25 µg/mL	> 100 µg/mL	
C[Si](C)(C)OC[C@H]1O[C@@H](n2cc(/C=C/Br)c(=O)[nH]c2=O)C[C@@H]1O[Si](C)(C)C [Example 22, E-5-(2-Bromovinyl)-3',5'-bis-O-trimethylsilyl-2'-deoxyuridine]			> 100 µg/mL	0.24 µg/mL and 500 nM
CCCCC(=O)n1c(=O)c(/C=C/Br)cn([C@H]2C[C@H](O)[C@@H](CO)O2)c1=O [Example 23, E-5-(2-Bromovinyl)-3-N-valeryl-2'-deoxyuridine]	6.21	0.26 µg/mL	> 100 µg/mL	
CC(C)(C)C(=O)n1c(=O)c(/C=C/Br)cn([C@H]2C[C@H](O)[C@@H](CO)O2)c1=O [Example 24, E-5-(2-Bromovinyl)-3-N-pivaloyl-2'-deoxyuridine]	5.96	0.46 µg/mL	> 100 µg/mL	
O=C(C1CCCCC1)n1c(=O)c(/C=C/Br)cn([C@H]2C[C@H](O)[C@@H](CO)O2)c1=O [Example 25, E-5-(2-Bromovinyl)-3-N-cyclohexanecarbonyl-2^1-deoxyuridine]	6.14	0.32 µg/mL	> 100 µg/mL	
O=C(c1cccc(Cl)c1)n1c(=O)c(/C=C/Br)cn([C@H]2C[C@H](O)[C@@H](CO)O2)c1=O [Example 26, E-5-(2-Bromovinyl)-3-N-(3-chlorobenzoyl)-2^1-deoxyuridine]	6.28	0.25 µg/mL	> 100 µg/mL	
CCCN(CCC)S(=O)(=O)c1ccc(C(=O)OC[C@H]2O[C@@H](n3cc(/C=C/Br)c(=O)[nH]c3=O)C[C@@H]2O)cc1 [Example 29, E-5-(2-Bromovinyl)-5'-p-(dipropylsulphamoyl)benzoyl-2'-deoxyuridine]	5.73	1.12 µg/mL	> 100 µg/mL	
CCCN(CCC)S(=O)(=O)c1ccc(C(=O)n2c(=O)c(/C=C/Br)cn([C@H]3C[C@H](O)[C@@H](CO)O3)c2=O)cc1 [Example 30, E-5-(2-Bromovinyl)-3-[4-(N,N-di-n-propylsulphamoyl)benzoyl]-2'-deoxyuridine]	6.74	0.11 µg/mL	> 100 µg/mL	
O=C(OC[C@H]1O[C@@H](n2cc(/C=C/Br)c(=O)[nH]c2=O)C[C@@H]1OC(=O)c1ccc([N+](=O)[O-])cc1)c1ccc([N+](=O)[O-])cc1 [Example 31, E-5-(2-bromovinyl)-3',5'-di-O(4-nitrobenzoyl)-2-deoxy-uridine]			> 100 µg/mL	20 µg/mL and 32 µM
O=C(OC[C@H]1O[C@@H](n2cc(/C=C/Br)c(=O)[nH]c2=O)C[C@@H]1O)c1ccc([N+](=O)[O-])cc1 [Example 32, E-5-(2-Bromovinyl)-5' -O-(4-nitrobenzoyl)-2'-deoxyuridine]	5.70	0.95 µg/mL	> 100 µg/mL	
O=C(OC[C@H]1O[C@@H](n2cc(/C=C/Br)c(=O)[nH]c2=O)C[C@@H]1OC(=O)c1ccc(Cl)c(Cl)c1)c1ccc(Cl)c(Cl)c1 [Example 33, E-5-(2-bromovinyl)-3',5'-di-O-(3,4-dichlorobenzoyl)-2'-deoxyuridine]	3.83	100 µg/mL	> 100 µg/mL	
O=C(O[C@H]1C[C@H](n2cc(/C=C/Br)c(=O)[nH]c2=O)O[C@@H]1CO)c1ccc(Cl)c(Cl)c1 [Example 34, E-5-(2-bromovinyl)-3'-O-(3,4-dichlorobenzoyl)-2'-deoxyuridine]	5.64	1.2 µg/mL	> 100 µg/mL	
O=C(OC[C@H]1O[C@@H](n2cc(/C=C/Br)c(=O)[nH]c2=O)C[C@@H]1O)c1ccc(Cl)c(Cl)c1 [Example 35, E-5-(2-Bromovinyl)-5' -O-(3 ,4-dichlorobenzoyl)-2'-deoxyuridine]	5.55	1.4 µg/mL	> 100 µg/mL	
Cc1ccc(C(=O)O[C@H]2C[C@H](n3cc(/C=C/Br)c(=O)[nH]c3=O)O[C@@H]2CO)cc1 [Example 37, E-5-(2-bromovinyl)-3'-O-(4-methylbenzoyl)-2'-deoxyuridine]	5.85	0.63 µg/mL	> 100 µg/mL	
Cc1ccc(C(=O)OC[C@H]2O[C@@H](n3cc(/C=C/Br)c(=O)[nH]c3=O)C[C@@H]2O)cc1 [Example 38, E-5-(2-Bromovinyl)-5'-O-(4-methylbenzoyl)-2' -deoxyuridine]	5.77	0.78 µg/mL	> 100 µg/mL	
CCCCc1ccc(C(=O)OC[C@H]2O[C@@H](n3cc(/C=C/Br)c(=O)[nH]c3=O)C[C@@H]2O)cc1 [Example 40, E-5-(2-bromovinyl)-5'-0-(4-n-butylbenzoyl)-2'-deoxyuridine]	4.92	6.1 µg/mL	> 100 µg/mL	
CN(C)c1ccc(C(=O)O[C@H]2C[C@H](n3cc(/C=C/Br)c(=O)[nH]c3=O)O[C@@H]2CO)cc1 [Example 42, E-5-{2-bromovinyl)-3'-O-(4-N,N-dimethylaminobenzoyl)-2'-deoxyuridine]	5.85	0.63 µg/mL	> 100 µg/mL	
CN(C)c1ccc(C(=O)O[C@H]2C[C@H](n3cc(/C=C/Br)c(=O)n(C(=O)c4ccc(N(C)C)cc4)c3=O)O[C@@H]2CO)cc1 [Example 48, E-5-(2-Bromovinyl)-3-N-(p-dimethylaminobenzoyl)-3'-O-(p-dimethylaminobenzoyl)-2'-deoxyuridine]	6.03	0.47 µg/mL	> 100 µg/mL	
Cc1ccccc1C(=O)O[C@H]1C[C@H](n2cc(/C=C/Br)c(=O)n(C(=O)c3ccccc3C)c2=O)O[C@@H]1CO [Example 49]	5.96	0.55 µg/mL	100 µg/mL	
